Results as given in article PMC9103758 (International Journal of Molecular Sciences, 2022).

How the values were obtained:
Type in all cases: cell-based
[1] = molecular target: T1, VRAC-mediated chloride current (ICl, swell) in HEK293T cells (Homo sapiens, UniProt Q8IWT6); experiment: Whole-cell voltage-clamp of ICl,swell in HEK293T cells; conditions: dose-dependent
T1 construct: endogenous in cells; host or cells: HEK293T
T1 sequence (Q8IWT6 1-810): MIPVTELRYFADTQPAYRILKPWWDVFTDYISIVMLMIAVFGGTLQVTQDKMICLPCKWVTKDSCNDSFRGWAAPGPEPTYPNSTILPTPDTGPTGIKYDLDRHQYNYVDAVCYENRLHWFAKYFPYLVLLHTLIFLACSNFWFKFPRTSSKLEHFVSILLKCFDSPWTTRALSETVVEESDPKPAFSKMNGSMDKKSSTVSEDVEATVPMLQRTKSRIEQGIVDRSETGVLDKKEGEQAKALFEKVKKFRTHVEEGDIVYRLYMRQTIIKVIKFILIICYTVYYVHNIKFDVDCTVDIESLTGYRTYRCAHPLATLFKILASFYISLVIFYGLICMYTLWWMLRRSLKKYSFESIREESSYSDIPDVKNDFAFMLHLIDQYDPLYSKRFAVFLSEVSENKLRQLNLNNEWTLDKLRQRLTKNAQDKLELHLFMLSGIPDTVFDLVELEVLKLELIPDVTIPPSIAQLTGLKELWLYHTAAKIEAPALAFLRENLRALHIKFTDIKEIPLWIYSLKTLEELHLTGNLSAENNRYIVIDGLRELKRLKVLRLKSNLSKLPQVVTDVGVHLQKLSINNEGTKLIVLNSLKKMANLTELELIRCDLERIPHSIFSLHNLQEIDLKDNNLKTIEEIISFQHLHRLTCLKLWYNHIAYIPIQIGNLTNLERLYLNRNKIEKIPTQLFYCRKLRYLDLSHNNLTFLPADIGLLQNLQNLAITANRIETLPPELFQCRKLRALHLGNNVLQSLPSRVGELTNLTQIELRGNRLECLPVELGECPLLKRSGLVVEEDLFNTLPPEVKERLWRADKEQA
Experimental: (A) Whole-cell membrane currents were recorded at a holding potential of −50 mV by voltage steps ranging from −120 to 120 mV (in steps of 20 mV) in HEK293T cells. […] (C) Whole-cell VRAC currents were recorded at a holding potential of −50 mV by voltage steps ranging from −100 to 100 mV (in steps of 20 mV) in LN215 cells.
For volume-regulated anion channel (VRAC) currents measurement, the isotonic bath solution contained (in mM): 150 NaCl, 6 KCL, 1.5 CaCl2, 1 MgCl2, 10 glucose, 1 HEPES, and pH 7.4 with NaOH (320 mOsm). […] The pipette solution contained (in mM): 40 CsCl, 100 Cs-methanesulfonate, 0.5 EGTA, 1 MgCl2, 1.9 CaCl2, 5 EGTA, 4 Tris−ATP, 10 HEPES, and pH 7.2 with CsOH (290 mOsm). Pipettes were pulled from borosilicate glass and had resistances of 3–5 MΩ after fire polishing. Seal resistances were between 3 and 10 GΩ. The liquid junction potential (~2.4 mV) was not corrected. After establishing the whole-cell configuration, whole-cell capacitance and series resistance were compensated with the amplifier circuitry. VRAC was activated by exposing LN215 cells to a 25% hypotonic bath solution. Whole-cell currents were elicited by applying hyperpolarizing and depolarizing voltage pulses from a holding potential of 0 mV to potentials between −100 mV and +100 mV or −120 mV and +120 mV in steps of 20 mV. Recordings were made at room temperature. […]

ANO1 = molecular target: T2, ANO1 (Homo sapiens, UniProt Q5XXA6, DEL476-501); experiment: Apical membrane current of ANO1 in FRT cells expressing human ANO1
T2 construct: expressed in transfected cells; host or cells: Fisher rat thyroid (FRT) cells; The YFP assay uses FRT-ANO1-YFP cells, which also carry the halide sensor
T2 sequence (Q5XXA6 with tags, fused parts or gaps isoform Q5XXA6-5 DEL539-564): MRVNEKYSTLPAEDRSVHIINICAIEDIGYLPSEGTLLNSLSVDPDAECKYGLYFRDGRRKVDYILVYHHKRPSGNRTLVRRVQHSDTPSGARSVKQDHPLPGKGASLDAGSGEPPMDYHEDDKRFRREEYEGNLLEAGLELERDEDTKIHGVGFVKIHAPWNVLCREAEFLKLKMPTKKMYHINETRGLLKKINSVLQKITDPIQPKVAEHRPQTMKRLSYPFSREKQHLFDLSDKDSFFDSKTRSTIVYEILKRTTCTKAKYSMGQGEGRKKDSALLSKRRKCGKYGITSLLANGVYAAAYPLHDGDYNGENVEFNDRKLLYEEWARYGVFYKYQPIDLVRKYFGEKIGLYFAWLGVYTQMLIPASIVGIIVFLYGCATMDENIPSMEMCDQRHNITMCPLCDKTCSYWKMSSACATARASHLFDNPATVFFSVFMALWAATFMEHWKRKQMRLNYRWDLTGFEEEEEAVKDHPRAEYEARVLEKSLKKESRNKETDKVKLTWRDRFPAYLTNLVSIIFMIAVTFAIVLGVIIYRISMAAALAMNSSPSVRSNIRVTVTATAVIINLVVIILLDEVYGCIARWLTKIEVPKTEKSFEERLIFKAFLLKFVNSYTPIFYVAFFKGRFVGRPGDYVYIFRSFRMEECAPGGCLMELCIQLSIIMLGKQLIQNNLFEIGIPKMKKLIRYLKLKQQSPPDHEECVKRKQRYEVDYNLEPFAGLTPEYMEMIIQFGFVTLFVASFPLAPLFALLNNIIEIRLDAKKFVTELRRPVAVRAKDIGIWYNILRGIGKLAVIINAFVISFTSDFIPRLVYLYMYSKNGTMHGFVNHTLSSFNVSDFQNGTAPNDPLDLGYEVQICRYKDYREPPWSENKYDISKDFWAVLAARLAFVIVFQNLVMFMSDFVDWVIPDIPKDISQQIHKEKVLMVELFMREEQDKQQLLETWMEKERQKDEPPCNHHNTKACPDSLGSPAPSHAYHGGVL
Experimental: (A) Representative Fluo4 fluorescence traces from 3 independent experiments in FRT cells. […] (B,C) Representative apical membrane currents from 3–4 independent experiments in FRT cells expressing human ANO1. […] (D) Representative YFP fluorescence traces in FRT cells expressing human ANO2. […] (E) Representative Fluo4 fluorescence traces from 3 independent experiments in FRT cells. Cells were pretreated with DCPIB for 10 min followed by application of 100 μM ATP. (F) Representative apical membrane currents in FRT cells expressing human ANO1.
Snapwell inserts containing ANO1(abc) or CFTR-expressing FRT cells were mounted in Ussing chambers (Physiological Instruments, San Diego, CA). The basolateral hemichamber was filled with buffer solution (in mM): 120 NaCl, 5 KCl, 1 MgCl2, 1 CaCl2, 10 D-glucose, 2.5 HEPES, and 25 NaHCO3 (pH 7.4). The apical hemichamber was filled with buffer solution (in mM): 60 NaCl, 60 Na-gluconate, 5 KCl, 1 MgCl2, 1 CaCl2, 10 D-glucose, 2.5 HEPES, and 25 NaHCO3 (pH 7.4). FRT cells were bathed for a 10 min stabilization period and gassed with 5% CO2 and 95% O2 at 37 °C. The apical membrane current was recorded with an EVC4000 Multi-Channel V/I Clamp (World Precision Instruments, Sarasota, FL, USA) and a PowerLab 4/35 (AD Instruments, Castle Hill, Australia).

VRAC in HeLa cells = molecular target: T3, VRAC in HeLa cells (Homo sapiens, UniProt Q8IWT6)
T3 construct: endogenous in cells; host or cells: HeLa cervical cancer cells stably expressing the YFP halide sensor
T3 sequence (Q8IWT6 1-810): T1 sequence (Q8IWT6 1-810)

Q: With `COc1cccc(C(c2c(O)c3ccccc3oc2=O)c2c(O)c3ccccc3oc2=O)c1O` [VI-116, 3,3′-((2-hydroxy-3-methoxyphenyl)methylene)bis(4-hydroxy-2H-chromen-2-one)] as the molecule, how does the “effect on hypotonic perfusion activated ICl, swell” value [1] read?
A: The value was “completely blocked”.

Q: What about the “effect on ANO1 channel activity” value (ANO1; 10 μM) of the same molecule?
A: Its value is “minimal effect”.

Q: And the “effect on ANO1 activation by Eact (apical membrane current)” value (ANO1; FRT cells expressing human ANO1, 3 μM Eact)?
A: Its value is “did not alter”.

Q: What about the “effect on ANO1 activation by ATP (apical membrane current)” value (ANO1; FRT cells expressing human ANO1, 100 μM ATP) of the same molecule?
A: Its value is “did not alter”.

Q: What about the IC50 (VRAC in HeLa cells) of the same molecule?
A: Its IC50 is 1200 ± 80 nM.
